Laboratory results taken from US4226856A, “Preparation and use of bouvardin and deoxybouvardin” (University Patents, Inc., priority 1978, dated 1980).

Key:
Solubility in water = assay type: physicochemical
From the text: (§1) As one example, the "PS" and "Bl" tests noted above involved subcutaneous administration of the test compounds in simple water solution forms. It is expected that water solutions of bouvardin and deoxybouvardin would ordinarily be stabilized by addition of antioxidant substances.

Melanotic Melanoma B 16 = assay: "Bl" test, Melanotic Melanoma B 16 Protocol 1.300; assay type: in vivo; details: mice, subcutaneous, water solution
Description: The in vivo "Bl" were carried out on mice according to "Melanotic Melanoma B 16--Protocol 1.300" (id., p. 11) with reporting and evaluation procedures identical to those of the "PS" test.
as §1

[1] = test system: cells of human adenocarcinoma of the nasopharynx (KB); assay: "KB" test, Cell Culture Screen KB Protocol 1.600; assay type: cell-based; details: 3 days after drug addition, average
Description: The in vitro "KB" tests were carried out according to "Cell Culture Screen KB--Protocol 1.600" (id., p. 17) using cells of human adenocarcinoma of the nasopharynx. Test results are expressed as the dose that inhibits cell growth to 50% of control growth by 3 days after drug addition.

[2] = test system: Lymphocytic Leukemia P388; assay: "PS" test, Lymphocytic Leukemia P388 Protocol 1.200; assay type: in vivo; details: mice; for RANGE OF % T/C: "PS" test
Description: The in vivo "PS" tests were carried out on mice according to "Lymphocytic Leukemia P388--Protocol 1.200", published in Cancer Chemotherapy Reports, Part 3, Vol. 3, No. 2, page 9, (September 1972) with results reported in terms of percent survivals of test versus control animals (%T/C).
as §1

Structure (SMILES)	Solubility in water (Solubility in water)	"Bl" test activity, % T/C (Melanotic Melanoma B 16; doses 0.12 to 2.0 mg/kg)	"KB" test ED 50 (dose that inhibits cell growth to 50% of control growth) [1]	RANGE OF % T/C ([2]; DOSE 0.04)	RANGE OF % T/C ([2]; DOSE 0.07)	RANGE OF % T/C ([2]; DOSE 0.11)	RANGE OF % T/C ([2]; DOSE 0.16)	RANGE OF % T/C ([2]; DOSE 0.25)	RANGE OF % T/C ([2]; DOSE 0.50)	RANGE OF % T/C ([2]; DOSE 1.00)	RANGE OF % T/C ([2]; DOSE 2.00)	"PS" test activity, % T/C (survival of test versus control animals) ([2]; dose levels 0.02 to 2.0 mg/kg, subcutaneous, water solution)	"Bl" test activity, % T/C (Melanotic Melanoma B 16; 0.25 to 8.0 mg/kg doses)	"PS" test activity, % T/C ([2]; 0.04 to 2.0 mg/kg doses, subcutaneous, water solution)
COc1ccc(C[C@H]2C(=O)N[C@@H](C)C(=O)N(C)[C@@H]3C(=O)N(C)[C@@H](Cc4ccc(O)c(c4)Oc4ccc(cc4)[C@@H]3O)C(=O)N[C@H](C)C(=O)N[C@@H](C)C(=O)N2C)cc1 [bouvardin]	partially soluble in water	134-152 % T/C	about 4.3×10^-7 μg/L	134 % T/C	139 % T/C	150 to 164 % T/C	158 % T/C	161 to 188 % T/C	135 to 186 % T/C	148 to 217 % T/C	167 to 205 % T/C	135 to 217 % T/C	–	–
COc1ccc(C[C@H]2C(=O)N[C@@H](C)C(=O)N(C)[C@H]3Cc4ccc(cc4)Oc4cc(ccc4O)C[C@@H](C(=O)N[C@H](C)C(=O)N[C@@H](C)C(=O)N2C)N(C)C3=O)cc1 [deoxybouvardin]	partially soluble in water	–	1.9e-08 ng/mL	–	–	–	–	–	–	–	–	–	133-175 % T/C	142-216 % T/C
